One molecule from patent publication US20110081428A1, “Use of thioflavin-like compounds to increase life span and/or health span” (priority 2009, published 2011) can be followed below.

For series [1], the system named is wildtype (N2) C. elegans. Nature of the series: Lifespan assay, wildtype worms. It counts as in vivo. The protocol:
Lifespan assays were performed as described previously. (McColl, G. et al. Pharmacogenetic analysis of lithium-induced delayed aging in Caenorhabditis elegans. J Biol Chem 283, 350-357 (2008). Briefly, the nematode growth media (NGM) plates were prepared under sterile conditions. 100 μL of concentrated stocks of each of the compounds used in this study were added onto a previously prepared NGM small plate (3 mL volume) immediately spread over the surface of the plate. The final concentrations quoted in the text assume an even distribution of compound throughout the 3 ml plate. The plates were then placed in a laminar flow hood at room temperature for 30 min and then 60 μL of a concentrated suspension of E. coli OP50 was spotted to form a circular lawn on the center of each plate. […] The first day of adulthood is Day 3 in survival curves. There was between-experiment variation in the magnitude of the lifespan extension observed with ThT which appeared to correlate with different suppliers and batches. ThT concentration should be optimized depending on batch and purity and stability of the compound. […] The optimal range for lifespan extension was between 25 and 75 μM.
Animals were scored as alive, dead or lost every other day. […] Animals that died from causes other than ageing, such as sticking to the plate walls, internal hatching of eggs (“bagging”) or gonadal extrusion were censored as were lost worms. Animals were transferred to fresh plates every 3-6 days. All lifespan experiments were performed at 20° C. unless otherwise stated. Survival curves were plotted and statistical analyses (log-rank test) were performed using the Prism 4 software (Graphpad™ Software, Inc., San Diego, Calif., USA).

Series [2] deals with DA465 [eat-2(ad465)II]. The series is described as follows: Lifespan assay, eat-2 mutant. The conditions noted are these: 50 μM ThT. It counts as in vivo, Caenorhabditis elegans. The protocol: Lifespan assays were performed as described previously. (McColl, G. et al. Pharmacogenetic analysis of lithium-induced delayed aging in Caenorhabditis elegans. J Biol Chem 283, 350-357 (2008). Briefly, the nematode growth media (NGM) plates were prepared under sterile conditions. 100 μL of concentrated stocks of each of the compounds used in this study were added onto a previously prepared NGM small plate (3 mL volume) immediately spread over the surface of the plate. The final concentrations quoted in the text assume an even distribution of compound throughout the 3 ml plate. The plates were then placed in a laminar flow hood at room temperature for 30 min and then 60 μL of a concentrated suspension of E. coli OP50 was spotted to form a circular lawn on the center of each plate. Thirty late L4 larvae growing at 20° C. were transferred to fresh NGM plates with FUdR (75 μM) in presence or absence of the specified compounds and incubated at 20° C. The first day of adulthood is Day 3 in survival curves. There was between-experiment variation in the magnitude of the lifespan extension observed with ThT which appeared to correlate with different suppliers and batches. ThT concentration should be optimized depending on batch and purity and stability of the compound. […]
Animals were scored as alive, dead or lost every other day. […]

The test system of series [3] is CL4176 (Aβ3-42 expressed in muscle). The series is described as follows: Worm paralysis assay, Aβ model. It counts as in vivo, Caenorhabditis elegans.
Procedure: (§1) Scoring for paralysis was initiated 2 and 8 days after temperature upshift for CL4176 and AM140, respectively. […] For sensitivity to EtOH or levamisole resistance, CW152 gas-1 (fc21) X and ZZ26 unc-63(x26)I worms were picked into 0.4 M EtOH or 50 μM levamisole, respectively, equilibrated for 5 min, and scored for paralysis as described above. Treated and untreated worms were compared with an unpaired t-test (implemented in Prism 4, Graphpad™ Software, Inc., San Diego, Calif., USA).
Series [4] relates to CB1157 [unc-54(e1157)I]. The series is described as follows: Worm paralysis assay, unc-54 ts mutant. It counts as in vivo, Caenorhabditis elegans. The conditions noted are these: restrictive temperature 25° C.
Procedure: as §1
Series [5] has as its system HSP-16.2. Nature of the series: Western blot HSP-16.2. It counts as in vivo, Caenorhabditis elegans. Particulars: 50 μM ThT, 100 μM curcumin, 4 and 7 days of treatment. The protocol:
Peptide corresponding to amino acids 110-145 ([…]; SEQ ID NO:1) of HSP-16.2 was used to commercially synthesize antiserum (Invitrogen). Briefly, KLH-peptide was emulsified by mixing with an equal volume of Freund's adjuvant and injected into three subcutaneous dorsal sites for a total of 0.1 mg of peptide for immunization. The animals (rabbits) were bled, the blood allowed to clot and the serum collected by centrifugation. Monoclonal HSP-70 and Polyclonal HSF-1 primary antibodies were from stressgen (N27F3-4 and SPA-901, respectively).
Worms were transferred to siliconized eppendorf tubes, washed once in S-basal and frozen in liquid N2. Standard SDS-PAGE was performed using (4-12%) NOVEX gels and IVIES running buffer. Following transfer PVDF (BioRad) membranes were incubated with antisera (1:10000) or primary antibodies (1:1000) diluted in blocking buffer and then with secondary, goat anti-rabbit IgG antibody/horseradish peroxidase conjugate (Pierce), diluted 1:25000. Detection was undertaken with chemiluminescent reagents (SuperSignal, Pierce) and standard autoradiography.

Series [6] concerns unc-54 RNA. Nature of the series: Real time quantitative PCR, unc-54. It counts as in vivo, Caenorhabditis elegans. The conditions noted are these: 50 μM ThT, 3, 6 and 12 days of treatment. The protocol: Twelve single adults from control or 50 μM ThT populations were picked after 3, 6 and 12 days of treatment into 5 μl of distilled water and flash frozen until extraction. Individual worms were extracted using the RNeasy Micro Kit, TissueLyser and QIAcube (Qiagen). Using the manufacturer's standard Animal Tissue protocol, each sample was homogenized in buffer RLT/Bme (Qiagen) on the TissueLyser (6 min total at 20 Hz). Samples, reagents and columns were then loaded into the QIAcube robot, and processed using the “RNeasy Micro—Animal tissues and cells—DNase digest” program. Each sample was then eluted in 14 μl of Nuclease-free water. cDNA templates for the Real Time PCR reactions were made using a combination of Message Sensor RT kit (Ambion's) and TaqMan PreAmp Master Mix (Applied Biosystems). The entire worm sample was added to the RT reaction and reversed transcribed at 50° C. for 20 min, using Message Sensor's “Two Step RT-PCR Protocol” (sample RT's were randomized). Then 2.5 μl of the cDNA sample was pre-amplified with a “4×Multiplex Primer Mix” for 14 cycles using TaqMan PreAmp master mix and protocol (ABI). Two modifications were made to ABI's protocol: 1. the reaction volume was reduced to 10 μl and 2. after pre-amplification, each cDNA sample was diluted 1:5 with 1XTE Buffer (Promega). cDNA samples were stored at −20° C. until needed. […]

Setting [7] is: absence of FUdR, 50 μM, 20° C., 4 independent experiments.
Where [8] appears, read: sterile N2 worms, 50 or 100 μM throughout adult life.

On to `Cc1ccc2c(c1)sc(-c1ccc(N(C)C)cc1)[n+]2C.[Cl-]` [ThT, 4-(3,6-dimethyl-1,3-benzothiazol-3-ium-2-yl)-N,N-dimethylaniline chloride], for which the “effect on lifespan at higher doses” value in series [1] (500 μM) is “appears toxic and significantly shortens lifespan”. In series [1] (setting [7]), the “Average increase in median lifespan” value is reported as 40% and the “increase in median lifespan, range over experiments” value is given as 30-70%. In addition, in series [1] (setting [8]), the “increase in maximal lifespan” value is on record as 43-78% and the “increase in median lifespan” value is on record as 60%. The “lifespan of eat-2 mutant (genetic DR model)” value in series [2] is given as “increased the lifespan”. In series [3] (CL4176, 50 μM ThT added 18 h after induction of aggregate formation), the “paralysis when treated after aggregation induction” value is given as “rescued the Aβ3-42 aggregation-induced paralysis”. For the same molecule, in series [3] (CL4176, 25° C., 50 μM ThT, 100 μM curcumin), the “proportion of paralyzed worms” value is given as “significantly decrease the proportion of paralyzed worms”. The “paralysis phenotype of unc-54 mutant” value in series [4] is “suppressed paralysis”. In series [5], the HSP-16.2 protein levels entry is listed as “up-regulated”. Moreover, the “unc-54 RNA levels” value in series [6] was “increases unc-54 RNA levels after 3, but not at 6 or 12 days of treatment”.
